Laboratory results: patent publication US20260191845A1, “PYRIDINE-2-THIOL 1-OXIDE DERIVATIVES AND THEIR USE FOR TREATMENT OF MAMMALIAN INFECTIONS CAUSED BY MYCOBACTERIUM OR FUNGI” (priority 2022, published 2026)
In brackets after ≈: the same amount, converted by molar mass. Read-outs that look alike come from different tables or passages of the source.

Experiments:
[1] = system: Penicillium notatum; test: Antifungal agar well diffusion assay; conditions: 20 μL water solution in 4 mm well
Procedure: (§1) The well diffusion test was performed using Casitone agar. The inoculum used was prepared using the Candida or Aspergillus strains from a 24-hour culture on Sabouraud dextrose agar, a suspension was made in a sterile saline solution (0.85%). The turbidity of the suspension was adjusted with a spectrophotometer at 530 nm to obtain a final concentration to match that of a 0.5 McFarland standard (0.5-2.5×10^3). 20 mL of Bacto-casitone were melted, cooled to 55° C. and then inoculated with 1 mL of the organism suspension. The inoculated agar was poured into the assay plate (9 cm in diameter) and allowed to cool down on a leveled surface.

[2] = system: Aspergillus niger; test: Antifungal agar well diffusion assay; conditions: 20 μL water solution in 4 mm well
Procedure: as §1

[3] = system: Sporobolomyces salmonicolor; test: Antifungal agar well diffusion assay; conditions: 20 μL water solution in 4 mm well
Procedure: as §1

[4] = system: Candida albicans H8; test: Antifungal agar well diffusion assay; conditions: 20 μL water solution in 4 mm well
Procedure: as §1

[5] = system: Mycobacterium abscessus ATCC 19977; test: REMA MIC90 against M. abscessus ATCC 19977; assay type: cell-based; conditions: Mycobacteroides abscessus
Procedure: Briefly, serial 2-fold dilutions of drug are prepared in 96-well microtiter plates (Fluoronunc, Thermo Fisher, Waltham, MA, USA) in 100 μL of Middlebrook 7H9 medium (Difco), supplemented with 10% OADC without addition of Tween 80. Then, M. abscessus log-phase cultures were diluted (OD600=0.02) and added in the 96-well microtiter plate. Growth controls containing no compound and sterile controls without inoculum are also included. […] After 1 day of incubation at 37° C., 10 μL of resazurin (0.025% w/v) is added to each well, and bacterial viability is assessed after a further 24 h of incubation using a Fluoroskan™ Microplate Fluorometer (Thermo Fisher Scientific, Waltham, MA, USA; excitation=544 nm, emission=590 nm). […] Results are expressed as the average of at least three independent replicates and presented on the following Table 1.

[6] = ATCC19977, MIC90, REMA, Table 1, read-out: MIC in M. abscessus ATCC 19977
[7] = ATCC19977, read-out: MIC in M. abscessus ATCC 19977

Structure (SMILES)	Inhibition Zone of Test Microorganism [1] [mm]	Inhibition Zone of Test Microorganism [2] [mm]	Inhibition Zone of Test Microorganism [3] [mm]	Inhibition Zone of Test Microorganism [4] [mm]	MIC [5, 6] [µg/mL]	MIC [5, 7] [µg/mL]
C[C@@H]1[C@H](O)[C@@H](C)/C=C/C=C/C=C/C=C/C=C/C=C/C=C/[C@H](O[C@@H]2O[C@H](C)[C@@H](O)[C@H](N)[C@@H]2O)C[C@@H]2O[C@](O)(C[C@@H](O)C[C@@H](O)[C@H](O)CC[C@@H](O)C[C@@H](O)CC(=O)O[C@H]1C)C[C@H](O)[C@H]2C(=O)O [Amph. B, reference compound]	12	17	15	22		
CCOC(=O)c1ccc(S)[n+]([O-])c1 [Compound 1, Ethyl 6-mercaptonicotinate 1-oxide]	17	26	43	56	125 (≈ 627 µM)	
COC(=O)c1ccc(S)[n+]([O-])c1 [Compound 3, Methyl 6-mercaptonicotinate 1-oxide]					250 (≈ 1350 µM)	
COC(=O)c1ccc([S-])[n+]([O-])c1.[Na+] [Compound 4, Sodium 5-(methoxycarbonyl)pyridine-2-thiolate 1-oxide]					250	
[Na+].[O-][n+]1cc(C(F)(F)F)ccc1[S-] [Compound 5, Sodium 5-(trifluoromethyl)pyridine-2-thiolate 1-oxide]	15	22	40	49		250
NC(=O)c1ccc([S-])[n+]([O-])c1.[K+] [Compound 6, Potassium 5-(aminocarbonyl)pyridine-2-thiolate 1-oxide]						500
O=C(c1ccc([S-])[n+]([O-])c1)N1CCCCC1.[K+] [Compound 7, Potassium 5-(piperidin-1-ylcarbonyl)pyridine-2-thiolate 1-oxide]	15	23	43	52		1000
CN(C)C(=O)c1ccc(S)[n+]([O-])c1 [Compound 8, 6-Mercapto-N,N-dimethylnicotinamide 1-oxide]					500 (≈ 2520 µM)	
CN(C)C(=O)c1ccc([S-])[n+]([O-])c1.[Na+] [Compound 9, Sodium 5-[(dimethylamino)carbonyl]pyridine-2-thiolate 1-oxide]					500	
CC(C)OC(=O)c1ccc([S-])[n+]([O-])c1.[Na+] [Compound 10, Sodium 5-(isopropoxycarbonyl)pyridine-2-thiolate 1-oxide]					500	
